Reference: publication PMC6273229, “Imidazopyranotacrines as Non-Hepatotoxic, Selective Acetylcholinesterase Inhibitors, and Antioxidant Agents for Alzheimer′s Disease Therapy” (Molecules, 2016)
Converted amounts (≈) assume the structure as drawn. “And” between values parts separate entries of the source, which are not always exact repeats. Equal entries are not always repeated. “Also recorded” adds a separate entry of the source. Where two headings read alike, the source gives them in different places.

Key:
[1] = molecular target: T1, BuChE from horse serum (eqBuChE) (Equus caballus, UniProt P81908); assay: biochemical; settings: mean ± SEM
T1 construct: BuChE from horse serum (lyophilized powder, Sigma-Aldrich); purchased Sigma-Aldrich; host or cells: horse serum
Procedure: The % inhibitory activity on BuChE from horse serum (lyophilized powder, Sigma-Aldrich), was evaluated spectrophotometrically by the method of Ellman et al.. BuChE stock solutions were first dissolved in 0.1 M phosphate buffer (pH 8.0) and then aliquoted in small vials. Compounds were dissolved in DMSO at 10 mM. The reaction was carried out in a final volume of 3 mL of a 0.1 M phosphate-buffered solution at pH 8.0, containing 5,5′-dithiobis-2-nitrobenzoic acid (DTNB, 2625 µL, 0.35 mM, final concentration), eqBuChE (60 µL, 0.05 U/mL final concentration), tested compound (3 µL, 10 µM, final concentration) and 1% w/v Bovine Serum Albumin phosphate-buffered (pH 8.0) solution (BSA, 40 µL). The inhibition with respect to control without compound was determined by pre-incubating this mixture at rt with each compound for 10 min. After this period, butyrylthiocholine iodide (150 µL, 0.5 mM final concentration) was added and incubated for 15 min at rt.

[2] = Oxygen radical absorbance capacity by fluorescence (ORAC-FL); settings: Trolox equivalents, mean ± SD
Procedure: The antioxidant power of the imidazopyranotacrines 1–13 was determined by the oxygen radical absorbance capacity by fluorescence (ORAC-FL) method using fluorescein as fluorescent probe and Trolox (6-hydroxy-2,5,7,8-tetramethylchroman-2-carboxylic acid) as a reference compound. Results are expressed as Trolox equivalents (μmol Trolox per μmol test compound).
The radical scavenging activity of imidazopyranotacrines 1–13 was determined by the ORAC-FL method using a Varioskan Flash plate reader with built-in injectors (Thermo Scientific). Trolox, 2,2′-azobis(amidinopropane) dihydrochloride (AAPH) and fluorescein (FL) were purchased from Sigma-Aldrich. The reaction was performed at 37 °C in 75 mM phosphate buffer (pH = 7.4), and the final volume reaction mixture was 200 µL. The final concentrations were 1–8 µM for Trolox and 0.1–1 µM for the tested compounds. Briefly, in a black 96-well microplate (Nunc), antioxidant (20 µL) and fluorescein (120 µL) were incubated for 15 min at 37 °C. Then, 2,2′-azobis(amidinopropane) dihydrochloride (60 µL) was added using the built-in injector. […] All assays were made in triplicate and at least three different assays were performed for each sample.
The net AUC corresponding to a sample was calculated as follows: Net AUC = AUCantioxidant − AUCblank(2)
Regression equations were calculated by plotting the net AUC against the antioxidant concentration. The ORAC value was obtained by dividing the slope of the latter curve by the slope of the Trolox curve obtained in the same assay. ORAC values was expressed as µmol of Trolox equivalent/µmol of imidazopyranotacrines. Data are expressed as mean ± SD.

[3] = molecular target: AChE from Electrophorus electricus (EeAChE) (Electrophorus electricus, UniProt O42275); assay: physchem; settings: for solubility: pH 8
Procedure: The inhibitory activity on AChE from Electrophorus electricus (type VI-S, Sigma, Milan, Italy), was evaluated spectrophotometrically by the method of Ellman et al.. AChE stock solution was prepared by dissolving EeAChE lyophilized powder (Sigma) in 0.1 M phosphate buffer (pH = 8.0) containing 0.1% Triton X-100. Stock solutions of the tested compounds (1 mM) were prepared in MeOH/H2O 50/50 (v/v) and diluted in MeOH/H2O 50/50 (v/v). […] Assay solutions with and without inhibitor were preincubated at 37 °C for 20 min followed by the addition of substrate. Blank solutions containing all components except EeAChE were prepared in parallel to account for the non-enzymatic hydrolysis of the substrate. Initial rate assays were performed at 37 °C with a Jasco V-530 double beam spectrophotometer. […] The velocity in the presence and absence of inhibitor were compared and % inhibition was calculated. The results were plotted by placing the percentage of inhibition in function of the decimal log of the final inhibitor concentration. Linear regression and IC50 values were calculated using Microcal Origin 3.5 software (Microcal Software, […]).

[4] = system: HepG2 cells; assay type: cell-based; settings: for Cell viability (MTT reduction, % control): 24 h, mean ± S.E.M.; for hepatotoxicity on HepG2 cells (in words): cell viability assay, 1–1000 µM
Procedure: The human hepatoma HepG2 line cells were purchased from American Type Culture Collection. The cells were cultured in Eagle’s Minimum Essential Medium (Ozyme, Montigny-le-Bretonneux, France) supplemented with 10% fetal bovine serum, 1X non-essential amino acids, 100 units/mL penicillin and […] streptomycin (Dutscher, Brumath, France). […] Prior to the experiment, cells were seeded in 96-well culture plates at a density of 0.1 × 10^6 cells per well. After 24 h of incubation, the culture medium was refreshed and 100 µL of the test compounds or DMSO (0.1%) were added. Compounds were tested at 7 concentrations (1–1000 µM) in triplicate.
Cell viability, measured as the mitochondrial activity of living cells, was determined by quantitative colorimetric assay with 3-[4,5 dimethylthiazol-2-yl]-2,5-diphenyl-tetrazolium bromide (MTT). Briefly, after 24 h of treatment, cells were incubated with 50 µL MTT (0.5 mg/mL, Sigma Aldrich) at 37 °C for 2 h. Plates were centrifuged, MTT was removed and 100 µL DMSO was distributed per well. The absorbance was read at 570 nm by microplate spectrophotometry. Cell viability was expressed as percentage over controls (DMSO, 0.1%).

[5] = read-out: EeAChE % inhibition at the highest concentration

T1 sequence (P81908 whole entry): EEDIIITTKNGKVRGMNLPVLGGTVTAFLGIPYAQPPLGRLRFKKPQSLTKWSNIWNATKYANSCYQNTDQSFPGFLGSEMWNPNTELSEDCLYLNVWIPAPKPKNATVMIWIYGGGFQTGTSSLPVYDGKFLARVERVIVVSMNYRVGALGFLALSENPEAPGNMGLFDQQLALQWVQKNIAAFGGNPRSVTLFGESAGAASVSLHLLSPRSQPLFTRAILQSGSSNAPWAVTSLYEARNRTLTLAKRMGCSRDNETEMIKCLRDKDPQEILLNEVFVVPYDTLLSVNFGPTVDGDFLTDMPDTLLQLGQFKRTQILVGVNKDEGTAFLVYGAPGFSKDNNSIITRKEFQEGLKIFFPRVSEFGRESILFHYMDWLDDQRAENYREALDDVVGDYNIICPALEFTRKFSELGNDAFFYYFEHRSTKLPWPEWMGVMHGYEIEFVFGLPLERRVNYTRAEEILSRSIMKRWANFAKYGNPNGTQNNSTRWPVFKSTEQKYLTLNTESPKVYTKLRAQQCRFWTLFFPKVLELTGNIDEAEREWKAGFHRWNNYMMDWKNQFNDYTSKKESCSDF
Chain of AChE from Electrophorus electricus (EeAChE) (O42275 24-633): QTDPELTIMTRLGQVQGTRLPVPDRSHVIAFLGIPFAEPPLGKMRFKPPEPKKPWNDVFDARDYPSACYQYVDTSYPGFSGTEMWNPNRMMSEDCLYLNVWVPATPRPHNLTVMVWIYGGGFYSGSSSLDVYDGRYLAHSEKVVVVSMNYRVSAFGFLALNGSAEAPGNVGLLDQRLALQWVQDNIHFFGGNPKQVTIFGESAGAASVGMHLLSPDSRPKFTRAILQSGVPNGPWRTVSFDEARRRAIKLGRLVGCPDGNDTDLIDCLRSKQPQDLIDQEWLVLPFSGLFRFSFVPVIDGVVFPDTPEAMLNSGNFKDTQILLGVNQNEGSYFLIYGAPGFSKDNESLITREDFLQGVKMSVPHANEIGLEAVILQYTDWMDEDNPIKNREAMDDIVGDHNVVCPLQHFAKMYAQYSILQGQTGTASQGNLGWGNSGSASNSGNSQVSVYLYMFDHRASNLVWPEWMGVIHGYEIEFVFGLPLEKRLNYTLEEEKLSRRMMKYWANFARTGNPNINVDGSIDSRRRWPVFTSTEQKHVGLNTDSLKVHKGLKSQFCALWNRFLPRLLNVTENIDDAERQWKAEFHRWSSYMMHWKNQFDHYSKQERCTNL

Compound | ORAC [2] | inhibition at 10 µM [1] [%] | IC50 [3] [µM] | further results
7-(1-Methyl-1H-imidazol-2-yl)-9,10,11,12-tetrahydro-7H-benzo[7,8]chromeno[2,3-b]quinolin-8-amine [Compound 10] | 2.75 ± 0.09 µmol Trolox/µmol compound | – | – | eqBuChE % Inhibition at 10 μM [1]: 25.0 ± 0.2%; IC50 ([3]; read-out: EeAChE IC50 Values, mean ± SEM): 10.7 ± 0.2 µM; Cell viability (MTT reduction, % control) ([4]; HepG2, 1 µM): 101.8 ± 4.2 % control; Cell viability (MTT reduction, % control) ([4]; HepG2, 3 µM): 100.7 ± 2.6 % control; Cell viability (MTT reduction, % control) ([4]; HepG2, 10 µM): 100.5 ± 1.9 % control; Cell viability (MTT reduction, % control) ([4]; HepG2, 30 µM): 71.4 ± 7.4 % control; Cell viability (MTT reduction, % control) ([4]; HepG2, 100 µM): 63.5 ± 6.2 % control; Cell viability (MTT reduction, % control) ([4]; HepG2, 300 µM): 64.8 ± 5.7 % control; Cell viability (MTT reduction, % control) ([4]; HepG2, 1000 µM): 66.8 ± 4.1 % control; hepatotoxicity on HepG2 cells (in words) [4]: more toxic than tacrine
CCOC(=O)C1=C(C)Oc2nc3c(c(N)c2C1c1nccn1C)CCC3 (centres unmarked) [Compound 1, Ethyl 5-amino-2-methyl-4-(1-methyl-1H-imidazol-2-yl)-4,6,7,8-tetrahydrocyclopenta[b]pyrano[3,2-e]pyridine-3-carboxylate] | 0.34 ± 0.03 µmol Trolox/µmol compound | 25.6 ± 0.7 | 12.9 ± 0.3 | –
CCOC(=O)C1=C(C)Oc2nc3c(c(N)c2C1c1nccn1C)CCCC3 (centres unmarked) [Compound 2, Ethyl 5-amino-2-methyl-4-(1-methyl-1H-imidazol-2-yl)-6,7,8,9-tetrahydro-4H-pyrano[2,3-b]quinoline-3-carboxylate] | 1.79 ± 0.17 µmol Trolox/µmol compound | 34 ± 0.5 | 11.5 ± 0.4 | Cell viability (MTT reduction, % control) ([4]; HepG2, 1 µM): 102.7 ± 3.7 % control; Cell viability (MTT reduction, % control) ([4]; HepG2, 3 µM): 103.2 ± 4.4 % control; Cell viability (MTT reduction, % control) ([4]; HepG2, 10 µM): 101.3 ± 3.9 % control; Cell viability (MTT reduction, % control) ([4]; HepG2, 30 µM): 99.2 ± 2.6 % control; Cell viability (MTT reduction, % control) ([4]; HepG2, 100 µM): 93.0 ± 4.7 % control; Cell viability (MTT reduction, % control) ([4]; HepG2, 300 µM): 87.5 ± 3.2 % control; Cell viability (MTT reduction, % control) ([4]; HepG2, 1000 µM): 58.8 ± 2.1 % control; hepatotoxicity on HepG2 cells (in words) [4]: safe even at 300 µM
CCOC(=O)C1=C(C)Oc2nc3c(c(N)c2C1c1nccn1C)CCCCC3 (centres unmarked) [Compound 3, Ethyl 5-amino-2-methyl-4-(1-methyl-1H-imidazol-2-yl)-4,6,7,8,9,10-hexahydrocyclohepta[b]pyrano[3,2-e]pyridine-3-carboxylate] | 1.99 ± 0.23 µmol Trolox/µmol compound | 32.2 ± 0.9 | 432 ± 84 | –
CC(=O)C1=C(C)Oc2nc3c(c(N)c2C1c1nccn1C)CCCC3 (centres unmarked) [Compound 4, 1-(5-Amino-2-methyl-4-(1-methyl-1H-imidazol-2-yl)-6,7,8,9-tetrahydro-4H-pyrano[2,3-b]quinolin-3-yl)ethan-1-one] | 2.31 µmol Trolox/µmol compound and 2.31 ± 0.29 µmol Trolox/µmol compound | 24.9 ± 0.9 | 38.7 ± 1.7 | Cell viability (MTT reduction, % control) ([4]; HepG2, 1 µM): 107.7 ± 5.1 % control; Cell viability (MTT reduction, % control) ([4]; HepG2, 3 µM): 105.3 ± 2.9 % control; Cell viability (MTT reduction, % control) ([4]; HepG2, 10 µM): 102.1 ± 2.9 % control; Cell viability (MTT reduction, % control) ([4]; HepG2, 30 µM): 98.0 ± 3.1 % control; Cell viability (MTT reduction, % control) ([4]; HepG2, 100 µM): 104.6 ± 4.5 % control; Cell viability (MTT reduction, % control) ([4]; HepG2, 300 µM): 97.1 ± 3.0 % control; Cell viability (MTT reduction, % control) ([4]; HepG2, 1000 µM): 96.8 ± 1.5 % control; hepatotoxicity on HepG2 cells (in words) [4]: non-hepatotoxic; also recorded: safe even at 300 µM; also recorded: non-toxic even at the highest tested concentration; also recorded: lack of hepatotoxicity even at very high concentration
Cn1ccnc1C1C2=C(CC(C)(C)CC2=O)Oc2nc3c(c(N)c21)CCC3 (centres unmarked) [Compound 5, 11-Amino-7,7-dimethyl-10-(1-methyl-1H-imidazol-2-yl)-2,3,6,7,8,10-hexahydrochromeno[2,3-b]cyclopenta[e]pyridin-9(1H)-one] | 1.70 ± 0.33 µmol Trolox/µmol compound | 12.9 ± 0.5 | 158 ± 33 | –
Cn1ccnc1C1C2=C(CC(C)(C)CC2=O)Oc2nc3c(c(N)c21)CCCC3 (centres unmarked) [Compound 6, 11-Amino-3,3-dimethyl-12-(1-methyl-1H-imidazol-2-yl)-2,3,4,7,8,9,10,12-octahydro-1H-chromeno[2,3-b]quinolin-1-one] | 2.34 µmol Trolox/µmol compound and 2.34 ± 0.31 µmol Trolox/µmol compound | 33.5 ± 1.7 | 37.8 ± 1.2 | –
Cn1ccnc1C1c2c(nc3c(c2N)CCC3)Oc2ccc3ccccc3c21 (centres unmarked) [Compound 7, 13-(1-Methyl-1H-imidazol-2-yl)-9,10,11,13-tetrahydrobenzo[5,6]chromeno[2,3-b]cyclopenta[e]pyridin-12-amine] | 1.47 ± 0.13 µmol Trolox/µmol compound | 50.5 ± 7.3 | 8.41 ± 0.14 | –
Cn1ccnc1C1c2c(nc3c(c2N)CCCCC3)Oc2ccc3ccccc3c21 (centres unmarked) [Compound 9, 15-(1-Methyl-1H-imidazol-2-yl)-9,10,11,12,13,15-hexahydrobenzo[5,6]chromeno[2,3-b]cyclohepta[e]pyridin-14-amine] | 1.35 ± 0.13 µmol Trolox/µmol compound | 15.1 ± 4.7 | – | solubility [3]: 15 µM (≈ 5.95 µg/mL); inhibition at 15 µM [3, 5]: < 15%
Cn1ccnc1C1c2ccc3ccccc3c2Oc2nc3c(c(N)c21)CCCCC3 (centres unmarked) [Compound 11, 7-(1-Methyl-1H-imidazol-2-yl)-7,9,10,11,12,13-hexahydrobenzo[7,8]chromeno[2,3-b]cyclohepta[e]pyridin-8-amine] | 2.33 µmol Trolox/µmol compound and 2.33 ± 0.13 µmol Trolox/µmol compound | 20.3 ± 3.7 | – | solubility [3]: 25 µM (≈ 9.91 µg/mL); inhibition at 25 µM [3, 5]: < 15%
Cn1ccnc1C1c2ccc3cccnc3c2Oc2nc3c(c(N)c21)CCC3 (centres unmarked) [Compound 12, 7-(1-Methyl-1H-imidazol-2-yl)-7,9,10,11-tetrahydrocyclopenta[5′,6′]pyrido[3′,2′:5,6]pyrano[3,2-h]quinolin-8-amine] | 1.88 ± 0.07 µmol Trolox/µmol compound | 27.5 ± 1.1 | 15.3 ± 0.6 | –
Cn1ccnc1C1c2ccc3cccnc3c2Oc2nc3c(c(N)c21)CCCCC3 (centres unmarked) [Compound 13, 7-(1-Methyl-1H-imidazol-2-yl)-7,9,10,11,12,13-hexahydrocyclohepta[5′,6′]pyrido[3′,2′:5,6]pyrano[3,2-h]quinolin-8-amine] | 2.25 µmol Trolox/µmol compound and 2.25 ± 0.29 µmol Trolox/µmol compound | 75.7 ± 2.3 | 30 ± 2 | –
